The text below walks through data of publication PMC11434026, “Development and Validation of an LC-MS/MS Assay for the Quantitation of MO-OH-Nap Tropolone in Mouse Plasma: Application to In Vitro and In Vivo Pharmacokinetic Studies” (Molecules, 2024).

Data set [1] in a line: Gastrointestinal fluid stability (SGF, SIF, PBS). In kind it is physicochemical. The conditions noted are these: 37 °C, 1 µg/mL. As to the method: The gastric stability of MO-OH-Nap was determined at different physiological pH conditions using simulated gastric/intestinal fluid (SGF/SIF) or PBS (pH7.4) prepared with USP specifications. Briefly, simulated gastric fluid (SGF), pH 1.2, was prepared by dissolving […] of sodium chloride (NaCl) and 3.2 g of pepsin in 7 mL hydrochloric acid (HCl) and a sufficient amount of water to make 1000 mL. The simulated intestinal fluid (SIF), pH 6.8, was prepared by dissolving 6.805 g of monobasic potassium phosphate in 250 mL of water. Then 77 mL of 0.2 N sodium hydroxide (NaOH) was mixed with 500 mL water and 10 g of pancreatin, then made up to 1000 mL. The SIF solution is adjusted to pH 6.8 ± 0.1 with either 0.2 N NaOH or 0.2 N HCl. MO-OH-Nap at 1 µg/mL concentration was incubated with SGF, SIF and PBS (100 mM pH 7.4) at 37 °C on a shaking water bath, n = 3. Samples (100 µL) were collected at 0, 15, 30, 60, and 120 min. Immediately after sample collection, 300 µL ACN was added as a quenching solvent to stop chemical degradation. IS solution (10 µL from 1 µg/mL stock) was added to each sample, vortexed the centrifuged at 14,000 rpm (22,000× g) and 4 °C, and then transferred to HPLC vial for LC-MS/MS analysis. Stability was determined through the percentage of the parent drug remaining at different time points relative to the parent drug at 0 min (100% parent).

The nature of data set [2]: In vitro metabolic stability in human liver microsomes. In kind it is in vitro ADME. The note with it: HLM. As for the experimental part: Metabolic stability was assessed using mouse, rat, and human liver microsomes (XenoTech, LLC, Lenexa, KS, USA) for phase I metabolism. Briefly, A reaction solution was prepared by mixing […] of PBS (100 mM, pH 7.4), 25 µL of microsomal protein (20 mg/mL), MgCl2 (5 µL; 10 mM), and 50 µL of NADPH (2 mM). The final volume (0.5 mL) was pre-incubated for 10 min in a 37 °C water bath at 60 rpm. An aliquot of MO-OH-Nap (2 µL from 1 µg/mL stock) was spiked into the above solution to initiate the reaction. Aliquots of (50 µL) were collected at time intervals (0, 5, 15, 20, 30, 45, and 60 min) and quenched with 300 µL of ACN, […]. Afterwards, 10 µL of IS stock (1.0 µg/mL) was spiked in each sample then vortexed (5 min) and centrifuged at 10,800 rpm (13,000× g) for 15 min. Samples were vortexed and centrifuged at 10,800 rpm (13,000× g) for 15 min, the supernatant was collected and transferred to an HPLC vial and 10 µL were injected into the LC-MS/MS system. Testosterone and diclofenac were used as positive and negative controls to ensure that liver microsomes and incubation conditions were appropriate for conducting metabolism studies.

The test system of data set [3] is mouse plasma proteins. The experiment in a line: Plasma protein binding by Rapid Equilibrium Dialysis (RED). It is filed as in vitro ADME. The conditions noted are these: for % Drug Remaining at 5 h ± SD: 37 °C; for Equilibrium at 5 h ± SD: receiver/donor concentration; for % Plasma Protein Bound ± SD: mouse plasma; for % Drug Remaining at 5 h ± SD / % Plasma Protein Bound ± SD: 5 h. As to the method: […] The RED Kit represents 90 wells with two chambers at each well (red chamber for plasma and white buffer chamber separated by Teflon base plate. Prior to the experiments, RED kit was rinsed with 10% ethanol for 10 min and left to dryness. Also, mouse plasma was centrifuged at 2200 rpm (540× g) for 5 min and adjusted to pH […] with lactic acid. In brief, MO-OH-Nap spiked plasma samples (300 µL) were added in red chamber. The buffer chamber contained […] of Phosphate-buffered saline (100 mM, pH 7.4), which contained 100 mM sodium phosphate (Na3PO4) and 150 mM NaCl. The RED kit plate was covered with sealing tape and incubated at 37 °C on an orbital shaker at 300 rpm for 5 h. Aliquot of 50 µL were collected from both chambers, then mixed with equal amount of buffer or blank plasma, consecutively, for analysis. The samples were then processed using PPT extraction technique, as per described in the Section 4.4, and analyzed by LC-MS/MS.
Additionally, the plasma stability and the non-specific binding potential of MO-OH-Nap to the RED kit dialysis membrane were determined separately at the same time from the remaining plasma samples spiked with MO-OH-Nap.
Stability and non-specific binding were assessed by collecting samples at 0 h and 5 h of spiked MO-OH-Nap […] that was incubated in the same PPB condition for 5 h. The two samples were then analyzed by LC-MS/MS and the concentration was then compared between the two time points. The stability, equilibrium, device recovery, and PPB in plasma were calculated using the following equations:(6) % Drug Bound=Concentrationdonor cell−Conentrationreceiver cell/Concentrationdonor cell×100 (7) % Device Recovery=Concentrationreceiver cell+Concentrationdonor cell/Concentration5 h×100 (8) % Remaining at 5 h=Concentration5 h/Concentration0 h×100 (9) Equilibrium at 5 h=Concentrationreceiver cell/Concentrationdonor cell

Data set [4] can be described thus: Tissue distribution after single IP dose in CD-1 mice. It is filed as in vivo, mouse. The note with it: for concentration at 2 h: female, CD-1, mouse, 2 h after single IP 5 mg/kg. As for the experimental part:
MO-OH-Nap was dissolved in a 5% DMSO, 45% w/v hydroxypropyl-β-cyclodextrin solution in PBS (final concentration 0.625 mg/mL MO-OH-Nap). MO-OH-Nap (5 mg/kg) was administered IP. After dosing, approximately 100 µL of blood was collected in Lithium-Heparin-Microvette 300 µL Capillary Blood Collection Tube (SARSTEDT AG& Co., Nümbrecht, Germany) from the maxillary vein at 5, 15, 30 min and 1, 2, 4, 6, 8, 24, and 48 h. Two blood time points were collected from every mouse and the third time point was the terminal time point, for a total of three time points from each mouse (5 mice/group/per time point). Blood was centrifuged at 4000× g at 4 °C for 10 min to extract plasma. The collected plasma samples were stored at −80 °C until analysis. The specified tissues including liver, lungs, kidney, spleen, heart, and brain were collected at terminal times of 2, 8, 24 and 48 h after dosing. Tissue samples were rinsed with PBS to remove excess blood and blotted with filter paper. After weighing, each tissue sample was individually homogenized with de-ionized water using a TissueLyser II (Qiagen Science, Louisville, KY, USA). A dilution factor of five was used for liver, spleen, brain, lungs, and kidney while the heart was homogenized at a 6-fold dilution factor. All tissues were stored at −80 °C until analysis. Plasma concentrations (ng/mL) and tissue concentrations (ng/g) were determined for each time point collected using LC-MS/MS analysis.

Structures are written as SMILES. Read-outs that look alike come from different tables or passages of the source.

With `O=c1c(O)ccccc1-c1ccc2ccccc2c1` [MO-OH-Nap, MO-OH-Nap tropolone], the drug remaining is on record as over 80% in data set [1] (PBS pH 7.4, 120 min); over 80% in data set [1] (SGF pH 1.2, 120 min); over 80% in data set [1] (SIF pH 6.8, 120 min). The compound further showed a metabolic depletion in data set [2] (NADPH, 60 min) of under 15%. The parent drug remaining in data set [2] (all time points to 60 min) was over 95%. For the same compound, the “% Drug Remaining at 5 h ± SD” value in data set [3] (1 µg/mL) is 105.6 ± 0.8%; in data set [3] (10 µg/mL), 91.1 ± 2.5%. The “Equilibrium at 5 h ± SD” value came to 0.3 ± 0.5 in data set [3] (1 µg/mL) and 0.1 ± 0.00 in data set [3] (10 µg/mL). Besides, the “% Plasma Protein Bound ± SD” value is listed as 99.6 ± 0.1% in data set [3] (1 µg/mL) and 99.7 ± 0.1% in data set [3] (10 µg/mL). Also, in data set [4] (48 h after single IP 5 mg/kg), the “detection in all harvested tissue” value is reported as “detected”. Moreover, the concentration at 2 h in data set [4] (brain, read-out: tissue concentration, brain) stood at 51 ng/g; in data set [4] (heart, read-out: tissue concentration, heart) it was 115 ng/g; in data set [4] (kidney, read-out: tissue concentration, kidney) it was 750 ng/g; in data set [4] (liver, read-out: tissue concentration, liver), 1390 ng/g; in data set [4] (lungs, read-out: tissue concentration, lungs), 181 ng/g; in data set [4] (spleen, read-out: tissue concentration, spleen), 745 ng/g.
